Results as given in US9290461B2, “Crystalline modifications of prothioconazole” (ADAMA MAKHTESHIM LTD, priority 2008, dated 2016).

Assays:
[1] = Solubility in water, Shake Flask Method (OECD Guideline 105); assay type: physicochemical; conditions: 20° C., buffered at pH 7, Shake Flask Method (OECD Guideline 105)
Procedure: The following solubilities were measured in water, 20° C., buffered at pH 7, using the Shake Flask Method (OECD Guideline 105): […]

[2] = at room temperature; cited from earlier work

OC(Cc1ccccc1Cl)(Cn1nc[nH]c1=S)C1(Cl)CC1 (racemic) [Form I, 2-[(2RS)-2-(1-chlorocyclopropyl)-3-(2-chlorophenyl)-2-hydroxypropyl]-2H-1,2,4-triazole-3(4H)-thione]
solubility in water [1]: 28 ppm
thermodynamic stability of the crystalline form [2]: metastable at room temperature

OC(Cc1ccccc1Cl)(Cn1nc[nH]c1=S)C1(Cl)CC1 (racemic) [Form II, 2-[(2RS)-2-(1-chlorocyclopropyl)-3-(2-chlorophenyl)-2-hydroxypropyl]-2H-1,2,4-triazole-3(4H)-thione]
solubility in water [1]: 15 ppm
thermodynamic stability of the crystalline form [2]: thermodynamically stable at room temperature

OC(Cc1ccccc1Cl)(Cn1nc[nH]c1=S)C1(Cl)CC1 (stereo not drawn) [Amorphous, prothioconazole]
solubility in water [1]: 34 ppm

OC(Cc1ccccc1Cl)(Cn1nc[nH]c1=S)C1(Cl)CC1 (stereo not drawn) [DMSO Solvate, prothioconazole]
solubility in water [1]: 30 ppm
